The record followed here is patent US20210038577A1, “THIOREDOXIN REDUCTASE INHIBITORS FOR USE IN THE TREATMENT OF CANCER” (Cinda Pharma AB, priority 2018, published 2021).

Assay [1] has as its system MDA-MB-468 (a breast cancer cell line). Description: MTT cell viability assay, MDA-MB-468. The conditions noted are these: Homo sapiens, MDA-MB-468, 72 hrs. It is filed as cell-based. Here is the method:
MDA-MB-453 (ATCC HTB-131) cells were grown in media with sodium pyruvate. MDA-MB-231 cells (ATCC HTB-26) were grown in DMEM media or L-15 supplemented with Glutamax (1×). U87-MG (ATCC HTB-14) and MDA-MB-468 (ATCC HTB-132) cells were cultured in DMEM supplemented with Glutamax (1×). NB-4 (DSMZ ACC-207) cells were cultured in RPMI 1640.
Breast cancer and glioblastoma cell lines were plated 4000 cells/well in 96-well plates in the presence of 10% FBS media. The following day cells were treated with various concentrations of the example compounds (0.1% DMSO final) and incubated for 72 hrs. After the incubation an MTT assay was performed to access cell viability. Percent of viability was determined using DMSO vehicle and no cell (blank) controls.
A general note: Formazan colour is commonly taken as a measure of viable cells.

In assay [2] the test system is MDA-MB-231 cells. Nature of the assay: Alamar-Blue cell viability assay. Format: cell-based, human. The conditions noted are these: Homo sapiens, MDA-MB-231, 72 hrs. How it is done: MDA-MB-231 cells were plated 2000 cells/well in 96-well black optical plates in the presence of 10% FBS media containing 25 nM selenite. The following day cells were treated with various concentrations of compounds (0.1% DMSO final) and incubated for 72 hrs. After the incubation Alamar Blue reagent was added to each well and incubated for additional 3 hrs. Fluorescence was read ex:530 nm/em:590 nm, and percent of viability was determined using DMSO vehicle and no cell (blank) controls.

Assay [3] deals with MDA-MB-453 cells. Nature of the assay: CellQuanti-Blue cell viability assay, MDA-MB-453. Format: cell-based. How it is done: Cell viability was then assessed using the CellQuanti assay. Relative cell viability was determined using DMSO only and blank controls.
Cells were plated at 2000 cells/well into 96-well plates in media containing 10% FBS. […] CellQuanti-Blue cell viability reagent was added to each well and the plates were subsequently incubated at 37° C. for 3 hours. Viability was determined fluorometrically using an Enspire plate reader […] excitation: 530 nm, emission: 590 nm. Viability was normalized to DMSO controls and blank wells with media.

Assay [4] has as its system TM00098 patient-derived xenografts (TNBC). Nature of the assay: TM00098 patient derived TNBC xenografts in humanized Hu-CD34-NSG mice, tumor growth. It is filed as in vivo. From the text:
FIG. 11: Primary tumor growth of TM00098 patient derived triple-negative breast cancer xenografts in humanized immunocompetent NSG mice (Hu-CD34-NSG) treated with OT-1096 or vehicle control. A) Humanized NSG mice (Hu-CD34-NSG) engrafted with CD34+ cells from donor 5243 and subsequently implanted with TNBC PDX TM00098. B) Humanized NSG mice (Hu-CD34-NSG) engrafted with CD34+ cells from donor 5252 and subsequently implanted with TNBC PDX TM00098. Female NSG mice were implanted with human CD34+ hematopoietic stem cells from multiple donors and the level of human CD45+ cells were measured in the peripheral blood 12 weeks post engraftment. Mice with >25% human CD45+ cells in the peripheral blood were determined to have a humanized immune system (Hu-CD34-NSG™) mice and were enrolled into the study. […] Tumor volume was measured using a digital caliper two times a week for the duration of the study. […] Statistical significance (p<0.05) was determined using a Two-way repeated measures ANOVA with Sidak's multiple comparison test.
Athymic nude mice were inoculated orthotopically with 5×10^6 MDA-MB-231 breast cancer cells into the mammary fat pad, and randomized for treatment when tumors reached an average volume of 80-120 mm^3 (N=12 in each group). […] Xenograft tumor volume was assessed using caliper measurements for 25 days. […] Xenograft tumor volume was assessed using caliper measurements for 25 days. […]
For orientation: In xenograft studies the graft and the host belong to different species.

Several values for one entry are separate records, joined by “and”; a condition that tells them apart may be missing. Equal entries are not always repeated. Bounds are passed on as bounds.

One may read the IC50 as the concentration needed to halve the response being measured. High values mean lower potency, low ones higher potency. Consider `NC(=O)c1ccc(I)c([N+](=O)[O-])c1` [Iniparib, 4-Iodo-3-nitrobenzamide, reference compound], for which the IC50 in assay [1] is greater than 33 µM; in assay [2] it was 54.4 µM.

For the compound `COc1ccc([N+](=O)[O-])c(S(=O)(=O)c2ccc(Cl)cc2)n1` [OT-1000, 2-((4-Chlorophenyl)sulfonyl)-6-methoxy-3-nitropyridine], in assay [3] (24, 48, 72 hours (FIG. 2B)), the “sensitivity of MDA-MB-453 cells over time of exposure” value is listed as “increasingly sensitive”. For the same compound, the “potency relative to Iniparib in MDA-MB-453 cells” value in assay [3] (CellQuanti-Blue, 24, 48 or 72 hours) is “more potent”. For the same compound, the IC50 in assay [1] worked out at 9.21 µM; in assay [2], 3.53 µM.

With `CCCCCCCCS(=O)(=O)c1nc(OC)ccc1[N+](=O)[O-]` [OT-1096, 6-methoxy-3-nitro-2-(octylsulfonyl)pyridine], the “% TGI” value in assay [4] (10 mg/kg three times a week intravenously, human immune cells from two separate donors, caliper) was 45% and 55%. Moreover, the “mean tumor volume compared to vehicle” value in assay [4] (day 24 and 28 for CD34+ donor 5243, day 31 for donor 5252, p<0.05) was “statistically significant”.
